These are literature values, as cited in US20170079478A1, “NITROUS OXIDE MIXTURES AND METHODS OF USE” (KORVATA INC., priority 2014, published 2017).

Where two headings read alike, the source gives them in different places.

For data set [1] the following is noted: compared with nitrogen standardized to 1.0.

With `[Kr]` [Kr, krypton], in data set [1], the “RNP (Relative Narcotic Potency)” value is given as 7.1.

With `[He]` [He, helium], the “RNP (Relative Narcotic Potency)” value in data set [1] is recorded as 0.045.

Consider `[Ar]` [Ar, argon], for which the “RNP (Relative Narcotic Potency)” value in data set [1] was 2.3. Besides, the lipid solubility is, setting by setting: (0° C. and 15 psi) 300 µg/mL; (20° C. and 15 psi) 250 µg/mL.

Regarding `[Xe]` [Xe, xenon], the “RNP (Relative Narcotic Potency)” value in data set [1] is recorded as 25.6.

For `[N-]=[N+]=O` [Example N2O, nitrous oxide], in data set [1], the “RNP (Relative Narcotic Potency)” value is recorded as 39.

In the case of `[Ne]` [Ne, neon], the “RNP (Relative Narcotic Potency)” value in data set [1] was 0.3.
